Literature values, collected in patent US6342488B1, “Phosphonorisperidone and sulforisperidone compositions and methods” (priority 1998, dated 2002).

Conditions: condition associated with torsades de pointes

Row | SMILES | prolongation of QT interval
1 | Cc1nc2n(c(=O)c1CCN1CCC(c3noc4cc(F)ccc34)CC1)CCCC2 [risperidone, Risperidone] | implicated in a prolongation of QT interval
2 | Cc1nc2n(c(=O)c1CCN1CCC(c3noc4cc(F)ccc34)CC1)CCCC2O (centres unmarked) [hydroxyrisperidone, 9-hydroxyrisperidone] | implicated in a prolongation of QT interval
